Test results from US20190298796A1, “Therapeutic Compositions from the Brevinin-1 Family of Peptides and Uses Thereof” (priority 2016, published 2019).
Values after ≈ are worked out from the molar mass of the structure shown. Read-outs that look alike come from different tables or passages of the source. Positions of bridges follow the written chain, without caps; N, C: chain ends. Residues, ends and D or L forms follow the SMILES beside them.

Columns and labels:
[1] = system: MRSA ATCC 43300; format: cell-based, Methicillin-resistant Staphylococcus aureus; details: lowest concentration killing entire bacteria, 24 hrs
From the text: (§2) Antimicrobial activity: Broth dilution method [39] was used to assess the antimicrobial activity of the peptides. Bacterial strains used for in vitro antibacterial assay were Staphylococcus aureus (MTCC 9542), Bacillus subtilis (MTCC 14416), Bacillus coagulans (ATCC 7050), Methicillin-resistant Staphylococcus aureus (MRSA) (ATCC 43300), Streptococcus mutans (MTCC 497), Streptococcus gordonii (MTCC 2695), Vibrio cholerae (MCV09), Escherichia coli (ATCC 25922), Vancomycin-resistant enterococcus (VRE) (ATCC 29212) and gram-negative fish pathogens Aeromonas hydrophila (ATCC 7966) and Aeromonas sobria (ATCC 43979). Bacterial cultures were grown in Muller Hinton broth (MHB) (Hi-media) by overnight incubation at 37° C. with constant shaking. Microbial cultures having 10^6 CFU/ml were made from OD600: 0.6 cultures. 400 μM stock solutions of peptides were prepared in autoclaved double distilled water and diluted in MHB to make concentrations ranging from 0.7 to 100 μM. Bacterial inoculum without peptide was used as the negative control.

[2] = system: Bacillus subtilis MTCC 14416; format: cell-based; details: lowest concentration killing entire bacteria, 24 hrs
From the text: as §2

[3] = system: E .coli. ATCC 25922; format: cell-based, Escherichia coli
From the text: as §2

[4] = system: Aeromonas hydrophilia ATCC 7966; format: cell-based, Aeromonas hydrophila; details: Aeromonas hydrophilia ATCC 7966 (fish pathogen); NA = not active up to the highest concentration tested
From the text: as §2

[5] = system: S. aureus (MTCC 9542); assay: SYTOX green uptake, confocal imaging of membrane permeation; format: cell-based, Staphylococcus aureus; details: MIC concentration, 10 min, CLSM
Experimental: (§1) Imaging the bacterial membrane permeation by the amidated peptides. In order to find out the membrane damage by the peptides, if any, we used SYTOX green uptake assay. MIC concentrations of B1/1 CONH2 and B1/2 CONH2 were prepared in sodium phosphate buffer (10 mM, pH: 7.4). Overnight cultures of S. aureus (MTCC 9542) and V. cholerae (MCV09) were re-inoculated in fresh MHB to attain an OD600-0.6. The bacterial suspension was centrifuged (3000×g) for 5 min and the pellet was washed twice with the sodium phosphate buffer (10 mM, pH: 7.4). The pellet was resuspended in the same buffer to an OD600-0.06. Diluted culture was incubated with the peptides for 10 min at 37° C. 100 μl suspensions were poured on to poly-L-lysine coated glass slides and incubated at 37° c. for 30 minutes. The glass slides were washed twice in the same buffer to remove unattached cells. After washing 50 μl of DAPI (10 μg/ml) was smeared on the glass slide and incubated for 30 minutes at 37° C. The slides were washed twice with the buffer and SYTOX green (0.1 μM) was smeared and incubated for 15 minutes at room temperature, washed twice and dried. A drop of glycerol was placed on the slides, mounted with a cover slip and sealed. Controls were run in the presence of peptide solvents. The slides were subjected to confocal laser scanning microscopy (CLSM).

[6] = system: VRE ATCC 29212; details: lowest concentration killing entire bacteria, 24 hrs
From the text: as §2

[7] = system: Bacillus coagulans ATCC 7050; format: cell-based; details: lowest concentration killing entire bacteria, 24 hrs
From the text: as §2

[8] = system: human erythrocytes; format: cell-based; details: 60 min
Experimental: Hemolytic Activity: Hemolytic assay was carried out as previously described. Briefly, 10% (v/v) suspensions of fresh human erythrocytes in phosphate buffered saline (pH 7.2) were incubated with different concentrations (100 μM-0.7 μM) of B1/1 COOH & B1/2 COOH, B1/1 CONH2 & B1/2 CONH2 and cyclic B1/1 CONH2 & cyclic B1/2 CONH2 and incubated at 3^7° C. for 60 min. The cells were centrifuged (3000×g) for 5 min, and absorbance of the supernatant was measured at 595 nm. Hemolysis caused by 10% Triton X-100 was taken as positive control. Percentage hemolysis was calculated by measuring the mean amount of hemoglobin released as a result of lysis of erythrocyte from three independent experiments.

[9] = system: Staphylococcus aureus MTCC 9542; format: cell-based; details: lowest peptide concentration required to kill entire bacteria, 24 hrs, NA = not active up to the highest concentration tested
From the text: as §2

[10] = system: V. cholerae (MCV09); assay: SYTOX green uptake, confocal imaging of membrane permeation; format: cell-based, Vibrio cholerae; details: MIC concentration, 10 min, CLSM
Experimental: as §1

[11] = system: Streptococcus mutans MTCC 497; format: cell-based; details: NA = not active up to the highest concentration tested
From the text: as §2

[12] = system: Streptococcus gordonii MTCC 2695; format: cell-based; details: NA = not active up to the highest concentration tested
From the text: as §2

[13] = system: Aeromonas sobria ATCC 43979; format: cell-based; details: Aeromonas sobria ATCC 43979 (fish pathogen); NA = not active up to the highest concentration tested
From the text: as §2

[14] = system: V. cholerae cells (MCV09); assay: Atomic Force Microscopy of surface morphology; format: cell-based, Vibrio cholerae; details: MIC, 15 min
Experimental: Visualizing the changes in surface morphology of bacteria: Atomic Force Microscopy. This was incorporated to get more insights into the mechanism of action of the peptides and to confirm the results obtained from SEM. V. cholerae cells (MCV09) were grown in MHB at 37° C., washed, and suspended in sodium phosphate buffer (10 mM, pH: 7.4) (OD600-0.06). Diluted bacteria were incubated with the MICs of B1/1 CONH2 and B1/2 CONH2 for 15 min. The control sample was prepared without the peptides. Samples were prepared by drop casting 20 μL of a solution on the freshly cleaved mica surface and dried under air. AFM analyses were carried out on Multimode SPM (Veeco Nanoscope V). Imaging was done under ambient conditions in tapping mode. The probe used for imaging was antimony doped silicon cantilever with a resonant frequency of 300 kHz and a spring constant of 40 Nm^−1.

[15] = system: Vibrio cholerae MCV09; format: cell-based; details: NA = not active up to the highest concentration tested
From the text: as §2

[16] = system: gram-negative bacteria; assay: MIC range over the tested gram-negative bacteria; format: cell-based
From the text: as §2

[17] = at the peptide's MIC for Aeromonas sobria ATCC 43979 (MIC in parenthesis)
[18] = at the peptide's MIC for Staphylococcus aureus MTCC 9542 (MIC in parenthesis)
[19] = at the peptide's MIC for Vibrio cholerae MCV09 (MIC in parenthesis)

CC[C@H](C)[C@H](NC(=O)CNC(=O)[C@@H]1CCCN1C(=O)[C@H](Cc1ccccc1)NC(=O)[C@@H](N)Cc1ccccc1)C(=O)N[C@H](C(=O)N[C@@H](CCCCN)C(=O)N[C@H](C(=O)N[C@@H](C)C(=O)NCC(=O)N[C@@H](C)C(=O)N[C@H](C(=O)N[C@@H](CC(C)C)C(=O)N1CCC[C@H]1C(=O)N[C@H](C(=O)N[C@@H](C)C(=O)N[C@H](C(=O)N[C@@H](CS)C(=O)N[C@@H](C)C(=O)N[C@H](C(=O)N[C@H](C(=O)N[C@@H](CCCCN)C(=O)N[C@@H](CCCNC(=N)N)C(=O)N[C@@H](CS)C(N)=O)[C@@H](C)O)[C@@H](C)CC)[C@@H](C)CC)[C@@H](C)O)[C@@H](C)CC)C(C)C)[C@@H](C)CC [B1/2 CONH2] (H-FFPGIIKVAGAILPTAICAITKRC-NH2; N-terminus assumed)
MIC [1]: 5 µM (≈ 12.5 µg/mL) | MIC [2]: 30 µM (≈ 75.1 µg/mL) | MIC [3]: 36.2 µM (≈ 90.6 µg/mL) | MIC [4]: 100 µM (≈ 250 µg/mL) | SYTOX green fluorescence signal (membrane permeabilization) [5]: marked increase in fluorescence signal | MIC [6]: 25 µM (≈ 62.6 µg/mL) | MIC [7]: 12.5 µM (≈ 31.3 µg/mL) | Percentage hemolysis at MIC [8, 17]: 25% | Percentage hemolysis at MIC [8, 18]: 8% | Percentage hemolysis at MIC [8, 19]: 25% | MIC [9]: 2.5 µM (≈ 6.26 µg/mL) | SYTOX green fluorescence signal (membrane permeabilization) [10]: marked increase in fluorescence signal | MIC [11]: 40 µM (≈ 100 µg/mL) | MIC [12]: 25 µM (≈ 62.6 µg/mL) | MIC [13]: 12.5 µM (≈ 31.3 µg/mL) | Changes in surface morphology (AFM) [14]: changes in surface morphology and aggregation | MIC [15]: 12 µM (≈ 30 µg/mL)

CC[C@H](C)[C@H](NC(=O)CNC(=O)[C@@H]1CCCN1C(=O)[C@H](Cc1ccccc1)NC(=O)[C@@H](N)Cc1ccccc1)C(=O)N[C@H](C(=O)N[C@@H](CCCCN)C(=O)N[C@H](C(=O)N[C@@H](C)C(=O)N[C@@H](CO)C(=O)N[C@@H](C)C(=O)N[C@H](C(=O)N[C@@H](CC(C)C)C(=O)N1CCC[C@H]1C(=O)N[C@H](C(=O)N[C@@H](C)C(=O)N[C@H](C(=O)N[C@H]1CSSC[C@@H](C(N)=O)NC(=O)[C@H](CCCNC(=N)N)NC(=O)[C@H](CCCCN)NC(=O)[C@H]([C@@H](C)O)NC(=O)[C@H]([C@@H](C)CC)NC(=O)[C@H](C)NC1=O)[C@@H](C)CC)[C@@H](C)O)[C@@H](C)CC)C(C)C)[C@@H](C)CC [Cyclic B1/1 CONH2] (H-FFPGIIKVASAILPTAICAITKRC-NH2; disulfide 18-24; N-terminus assumed)
MIC [1]: 5 µM (≈ 12.7 µg/mL) | MIC [2]: 45 µM (≈ 114 µg/mL) | MIC [3]: 50 µM (≈ 127 µg/mL) | MIC [4]: 100 µM (≈ 253 µg/mL) | MIC [6]: 25 µM (≈ 63.3 µg/mL) | MIC [7]: 25 µM (≈ 63.3 µg/mL) | Percentage hemolysis at MIC [8, 17]: 10% | Percentage hemolysis at MIC [8, 18]: 11% | Percentage hemolysis at MIC [8, 19]: 20% | MIC [9]: 3 µM (≈ 7.59 µg/mL) | MIC [11]: 40 µM (≈ 101 µg/mL) | MIC [12]: 25 µM (≈ 63.3 µg/mL) | MIC [13]: 3 µM (≈ 7.59 µg/mL) | MIC [15]: 12.5 µM (≈ 31.6 µg/mL)

CC[C@H](C)[C@H](NC(=O)CNC(=O)[C@@H]1CCCN1C(=O)[C@H](Cc1ccccc1)NC(=O)[C@@H](N)Cc1ccccc1)C(=O)N[C@H](C(=O)N[C@@H](CCCCN)C(=O)N[C@H](C(=O)N[C@@H](C)C(=O)N[C@@H](CO)C(=O)N[C@@H](C)C(=O)N[C@H](C(=O)N[C@@H](CC(C)C)C(=O)N1CCC[C@H]1C(=O)N[C@H](C(=O)N[C@@H](C)C(=O)N[C@H](C(=O)N[C@@H](CS)C(=O)N[C@@H](C)C(=O)N[C@H](C(=O)N[C@H](C(=O)N[C@@H](CCCCN)C(=O)N[C@@H](CCCNC(=N)N)C(=O)N[C@@H](CS)C(N)=O)[C@@H](C)O)[C@@H](C)CC)[C@@H](C)CC)[C@@H](C)O)[C@@H](C)CC)C(C)C)[C@@H](C)CC [B1/1 CONH2] (H-FFPGIIKVASAILPTAICAITKRC-NH2; N-terminus assumed)
MIC [1]: 2.5 µM (≈ 6.33 µg/mL) | MIC [2]: 36.3 µM (≈ 92 µg/mL) | MIC [3]: 29 µM (≈ 73.5 µg/mL) | MIC [4]: 100 µM (≈ 253 µg/mL) | SYTOX green fluorescence signal (membrane permeabilization) [5]: marked increase in fluorescence signal | MIC [6]: 25 µM (≈ 63.3 µg/mL) | MIC [7]: 8.2 µM (≈ 20.8 µg/mL) | Percentage hemolysis at MIC [8, 17]: 25% | Percentage hemolysis at MIC [8, 18]: 10% | Percentage hemolysis at MIC [8, 19]: 20% | MIC [9]: 1.5 µM (≈ 3.8 µg/mL) | SYTOX green fluorescence signal (membrane permeabilization) [10]: marked increase in fluorescence signal | MIC [11]: 36 µM (≈ 91.2 µg/mL) | MIC [12]: 19 µM (≈ 48.1 µg/mL) | MIC [13]: 12.5 µM (≈ 31.7 µg/mL) | Changes in surface morphology (AFM) [14]: changes in surface morphology and aggregation | MIC [15]: 10.3 µM (≈ 26.1 µg/mL)

CC[C@H](C)[C@H](NC(=O)CNC(=O)[C@@H]1CCCN1C(=O)[C@H](Cc1ccccc1)NC(=O)[C@@H](N)Cc1ccccc1)C(=O)N[C@H](C(=O)N[C@@H](CCCCN)C(=O)N[C@H](C(=O)N[C@@H](C)C(=O)NCC(=O)N[C@@H](C)C(=O)N[C@H](C(=O)N[C@@H](CC(C)C)C(=O)N1CCC[C@H]1C(=O)N[C@H](C(=O)N[C@@H](C)C(=O)N[C@H](C(=O)N[C@@H](CS)C(=O)N[C@@H](C)C(=O)N[C@H](C(=O)N[C@H](C(=O)N[C@@H](CCCCN)C(=O)N[C@@H](CCCNC(=N)N)C(=O)N[C@@H](CS)C(=O)O)[C@@H](C)O)[C@@H](C)CC)[C@@H](C)CC)[C@@H](C)O)[C@@H](C)CC)C(C)C)[C@@H](C)CC [B1/2 COOH] (H-FFPGIIKVAGAILPTAICAITKRC-OH; N-terminus assumed)
MIC [1]: 30 µM (≈ 75.1 µg/mL) | MIC [2]: 67.5 µM (≈ 169 µg/mL) | Activity against gram-negative bacteria (MIC range) [16]: not with gram-negative bacteria | MIC [6]: 50 µM (≈ 125 µg/mL) | MIC [7]: 25 µM (≈ 62.6 µg/mL) | Percentage hemolysis at MIC [8, 18]: 25% | MIC [9]: 12.5 µM (≈ 31.3 µg/mL)

CC[C@H](C)[C@H](NC(=O)CNC(=O)[C@@H]1CCCN1C(=O)[C@H](Cc1ccccc1)NC(=O)[C@@H](N)Cc1ccccc1)C(=O)N[C@H](C(=O)N[C@@H](CCCCN)C(=O)N[C@H](C(=O)N[C@@H](C)C(=O)NCC(=O)N[C@@H](C)C(=O)N[C@H](C(=O)N[C@@H](CC(C)C)C(=O)N1CCC[C@H]1C(=O)N[C@H](C(=O)N[C@@H](C)C(=O)N[C@H](C(=O)N[C@H]1CSSC[C@@H](C(N)=O)NC(=O)[C@H](CCCNC(=N)N)NC(=O)[C@H](CCCCN)NC(=O)[C@H]([C@@H](C)O)NC(=O)[C@H]([C@@H](C)CC)NC(=O)[C@H](C)NC1=O)[C@@H](C)CC)[C@@H](C)O)[C@@H](C)CC)C(C)C)[C@@H](C)CC [Cyclic B1/2 CONH2] (H-FFPGIIKVAGAILPTAICAITKRC-NH2; disulfide 18-24; N-terminus assumed)
MIC [1]: 7 µM (≈ 17.5 µg/mL) | MIC [2]: 35 µM (≈ 87.5 µg/mL) | MIC [3]: 50 µM (≈ 125 µg/mL) | MIC [4]: 50 µM (≈ 125 µg/mL) | MIC [6]: 30 µM (≈ 75 µg/mL) | MIC [7]: 29 µM (≈ 72.5 µg/mL) | Percentage hemolysis at MIC [8, 17]: 12% | Percentage hemolysis at MIC [8, 18]: 15% | Percentage hemolysis at MIC [8, 19]: 25% | MIC [9]: 3 µM (≈ 7.5 µg/mL) | MIC [11]: 40 µM (≈ 100 µg/mL) | MIC [12]: 25 µM (≈ 62.5 µg/mL) | MIC [13]: 3 µM (≈ 7.5 µg/mL) | MIC [15]: 12.5 µM (≈ 31.3 µg/mL)
